Results: patent US6641840B2, “Sustained release formulations for growth hormone secretagogues” (Pfizer Inc., priority 2000, dated 2003)
Like-named read-outs stand apart in the source and are kept apart here.

Tests used:
[1] = Clinical study: body composition (total adipose and total lean tissue); type: in vivo, human
Description: (All dosage forms in this part of the study were immediate release dosage forms.)
In addition, an extension study was conducted to evaluate the relationship between peak GH concentrations or IGF-I versus surrogate responses such as lipid concentrations and body composition. A sustained release (SR) formulation was also evaluated, either alone or combined with an immediate release (IR) formulation (24-30 patients per group). [16 mg (10 SR, 6 IR) h.s. (h.s. means at bedtime); 16 mg (10 SR, 6 IR) h.s. every third day; 16 mg SR h.s.; and placebo.] The formulations are set forth below.
The primary efficacy endpoint was the percentage change from baseline in IGF-1. Secondary outcomes included insulin-like growth factor binding protein 3 (IGFBP-3), cholesterol subfractions, and percent changes in total adipose and total lean tissue. Changes in each of the secondary efficacy measures over time were examined systematically either graphically or in tabular form and summarized using appropriate descriptive statistics as is well known in the art.

[2] = Excipient selection based on active compound solubility screening; type: physicochemical; settings: for solubility at 5 min: filtrate of excipient solution in water, 37 °C, thermodynamic from solid
Description: Such excipients are useful in making osmotic sustained release tablets. […] The active compound solubility measured in this manner exceeded 150 mgA/ml (mgA is the milligrams of active compound).
The excipients were screened by preparing a saturated solution (unless otherwise noted) of the candidate excipient in water at 37° C. for 2 hrs, and filtering the undissolved portion. […] The solution was maintained at 37° C. for 5 minutes prior to making the visual observation for any undissolved particulates.

rat pituitary cells = test: Pituitary cell desensitization - intracellular calcium assay; type: cell-based
Source text: Thus, it appears that sustained release formulations would not provide the desired in vivo response. The experiment was designed so that changes in intracellular calcium concentration could be continuously monitored during successive exposures of the same cells to the indicated test substances.
Rat pituitary cells were isolated as described in Example 3 and plated onto poly-D-lysine-coated glass coverslips, one coverslip per well in 12-well plates, at a density of 3-4×10^5 cells per well. Assays were performed 3-4 days after plating. Cells were loaded with 5 μM fura-2 AM (Molecular Probes, Eugene, Oreg.), a calcium-sensitive fluorescent dye, by incubation for 30 min at room temperature. Fura-2 was dissolved in dimethylsulfoxide at 5 mM, then diluted into KRH buffer (115 mM NaCl, 5.4 mM KCl, 1.8 mM CaCl2, 1 mM MgCl2, 0.96 mM NaH2PO4, 25 mM HEPES, 6 mM glucose and 0.05% bovine serum albumin, adjusted to pH 7.3)
To assay changes in intracellular calcium concentration, a coverslip with attached cells was mounted in a perfusion chamber on the stage of an inverted microscope (Zeiss Axiovert 135 with epifluorescence, Geschaftsbereich Mikroscopie, Oberkochen, Germany) and continuously superfused at room temperature. After superfusion with KRH for 1-2 min, baseline fluorescence was recorded. Each test substance was applied for 2 min, followed by washout with KRH prior to stimulation with the next test substance. Up to 20 individual cells per field were selected for recording and were excited alternately at wavelengths of 380 nm or 340 nm (slit width 15 nm). Fluorescence emission at 510 nm was collected at 5 sec intervals by a low light CCD camera (Hamamatsu Photonics, Hamamatsu City, Japan), and digitized images for the two excitation wavelengths were analyzed using Videoprobe software (ETM Systems, Irvine, Calif.) to determine the 340 nm/380 nm fluorescence ratio for individual cells during each time interval. The 340 nm/380 nm fluorescence ratio is proportional to the concentration of intracellular calcium.

[3] = first leg, immediate release dosing

## CN1N=C2CCN(C(=O)[C@@H](COCc3ccccc3)NC(=O)C(C)(C)N)C[C@@]2(Cc2ccccc2)C1=O.O=C(O)C(O)C(O)C(=O)O [Compound A]
[1]; extension study, two groups receiving IR formulation
  increases in lean tissue: 0.5-0.6%
[1]; [3]
  adipose tissue (body composition): decreased
  apparent whole body lean mass: increased
[2]; L-lysine solution 50 mg/ml, 37° C.
  visual observation on addition of Compound A: cloudy gel
[2]; aqueous buffer, L-lysine solution 50 mg/ml (below saturation), 37° C., read-out: COMPOUND A Solubility
  solubility at 5 min: < 50 mg/mL
[2]; aqueous buffer, saturated L-arginine solution, approx. 150 mg/ml, 37° C., read-out: COMPOUND A Solubility
  solubility at 5 min: < 50 mg/mL
[2]; aqueous buffer, saturated L-aspartic acid solution, approx. 7 mg/ml, 37° C., read-out: COMPOUND A Solubility
  solubility at 5 min: > 150 mg/mL
[2]; aqueous buffer, saturated ascorbic acid solution, approx. 400 mg/ml, 37° C., read-out: COMPOUND A Solubility
  solubility at 5 min: > 150 mg/mL
[2]; aqueous buffer, saturated citric acid solution, approx. 600 mg/ml, 37° C., read-out: COMPOUND A Solubility
  solubility at 5 min: > 150 mg/mL
[2]; aqueous buffer, saturated fumaric acid solution, approx. 10 mg/ml, 37° C., read-out: COMPOUND A Solubility
  solubility at 5 min: > 150 mg/mL
[2]; aqueous buffer, saturated potassium phosphate monobasic solution, approx. 400 mg/ml, 37° C., read-out: COMPOUND A Solubility
  solubility at 5 min: < 50 mg/mL
[2]; aqueous buffer, saturated sodium bitartrate solution, approx. 110 mg/ml, 37° C., read-out: COMPOUND A Solubility
  solubility at 5 min: > 150 mg/mL
[2]; aqueous buffer, saturated sodium citrate solution, approx. 520 mg/ml, 37° C., read-out: COMPOUND A Solubility
  solubility at 5 min: < 50 mg/mL
[2]; aqueous buffer, saturated sodium phosphate monobasic solution, approx. 1000 mg/ml, 37° C., read-out: COMPOUND A Solubility
  solubility at 5 min: < 50 mg/mL
[2]; aqueous buffer, saturated sodium phosphate tribasic solution, approx. 290 mg/ml, 37° C., read-out: COMPOUND A Solubility
  solubility at 5 min: < 50 mg/mL
[2]; aqueous buffer, saturated succinic acid solution, approx. 80 mg/ml, 37° C., read-out: COMPOUND A Solubility
  solubility at 5 min: > 150 mg/mL
[2]; aqueous buffer, sodium bitartrate buffer, read-out: solubility of the active compound
  solubility at 5 min: > 150 mg/mL
[2]; aqueous buffer, tartaric acid solution 50 mg/ml (below saturation), 37° C., read-out: COMPOUND A Solubility
  solubility at 5 min: > 150 mg/mL
[2]; aqueous with cosolvent or surfactant or cyclodextrin, cyclodextrin, sulfobutylether solution, approx. 1000 mg/ml, 37° C., read-out: COMPOUND A Solubility
  solubility at 5 min: 100 to 150 mg/mL
[2]; aqueous with cosolvent or surfactant or cyclodextrin, polyethylene glycol (Carbowax 3350) 50 mg/ml, 37° C., read-out: COMPOUND A Solubility
  solubility at 5 min: > 150 mg/mL
[2]; aqueous with cosolvent or surfactant or cyclodextrin, sodium lauryl sulfate solution, approx. 50 mg/ml, 37° C., read-out: COMPOUND A Solubility
  solubility at 5 min: 50 to 100 mg/mL
[2]; aqueous with cosolvent or surfactant or cyclodextrin, sulfobutylether cyclodextrin, read-out: active compound substance solubility
  solubility at 5 min: 100 to 150 mg/mL
[2]; saline or isotonic, saturated potassium chloride solution, approx. 360 mg/ml, 37° C., read-out: COMPOUND A Solubility
  solubility at 5 min: < 50 mg/mL
[2]; saline or isotonic, saturated sodium chloride solution, approx. 360 mg/ml, 37° C., read-out: COMPOUND A Solubility
  solubility at 5 min: < 50 mg/mL
[2]; visual screening, 37° C., read-out: active compound solubility measured in this manner
  solubility at 5 min: > 150 mg/mL
[2]; water, calcium stearate < 1 mg/ml, prepared at 2 mg/mL, 37° C., read-out: COMPOUND A Solubility
  solubility at 5 min: > 150 mg/mL
[2]; water, magnesium stearate < 1 mg/ml, 37° C., read-out: COMPOUND A Solubility
  solubility at 5 min: > 150 mg/mL
[2]; water, microcrystalline cellulose (Avicel PH102) < 1 mg/ml, prepared at 80 mg/ml, 37° C., read-out: COMPOUND A Solubility
  solubility at 5 min: > 150 mg/mL
[2]; water, microcrystalline cellulose, silicified (Prosolv SMCC50) < 1 mg/ml, prepared at 80 mg/ml, 37° C., read-out: COMPOUND A Solubility
  solubility at 5 min: > 150 mg/mL
[2]; saturated potassium chloride solution, 37° C.
  visual observation on addition of Compound A: cloudy gel
[2]; saturated sodium chloride solution, 37° C.
  visual observation on addition of Compound A: cloudy gel
[2]; saturated sodium citrate solution, 37° C.
  visual observation on addition of Compound A: cloudy gel
[2]; saturated sodium phosphate monobasic solution, 37° C.
  visual observation on addition of Compound A: cloudy gel
[2]; saturated sodium phosphate tribasic solution, 37° C.
  visual observation on addition of Compound A: cloudy gel
[2]; sodium lauryl sulfate solution 50 mg/ml, 37° C.
  visual observation on addition of Compound A: clear gel
Rat pituitary cells; cells that initially responded to Compound A or GHRP-6
  calcium flux on re-exposure to Compound A after washout: refractory
Rat pituitary cells; intracellular calcium, successive exposures
  desensitization between GHRH and Compound A: no desensitization
Rat pituitary cells; successive 2 min exposures with washout
  cellular responses (intracellular calcium) on repeated exposure: homologous desensitization
